Molecules are shown by their SMILES.

The target in the first assay is T1, HDM2 (Homo sapiens, UniProt Q00987).
T1 construct: Thioredoxin (N); made in house; host or cells: E. coli strain BL21(DE3)Rosetta
T1 sequence (Q00987 17-125): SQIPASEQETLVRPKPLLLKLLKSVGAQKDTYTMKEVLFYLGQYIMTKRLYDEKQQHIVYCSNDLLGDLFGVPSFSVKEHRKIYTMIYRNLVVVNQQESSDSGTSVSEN
The experiment in a line: HDM2 FRET assay (inhibition of binding of FITC labeled p53-pocket peptide to HDM2). To be noted: Table 20; read-out: FRET IC50. The method in brief: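 Displacement of FITC-p53 peptide (3 nM) from His-tagged HDM2 (0.5 nM) is measured by Tb-to-fluorescein FRET in PBS, 0.01% BSA, 0.01% Tween-20. IC50 values derive from 10-point curves.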
For the molecule `C[C@H]1CC[C@H](Cn2c(C3(c4ccccc4)CCC3)nc3nc(-c4n[nH]c(=O)o4)nc(-c4cncc(Cl)c4)c32)CC1` [Example 20.12, 5-[6-(5-chloropyridin-3-yl)-7-[(trans-4-methylcyclohexyl)methyl]-8-(1-phenylcyclobutyl)-7H-purin-2-yl]-1,3,4-oxadiazol-2(3H)-one], the 50% inhibitory concentration (IC50) was determined as 9.59 nM.
`C[C@H]1CC[C@H](Cn2c(C3(c4ccccc4)CCC3)nc3nc(-c4n[nH]c(=O)o4)nc(-c4cc(Cl)c[n+]([O-])c4)c32)CC1` [Example 20.13, 5-[6-(5-chloro-1-oxidopyridin-3-yl)-7-[(trans-4-methylcyclohexyl)methyl]-8-(1-phenylcyclobutyl)-7H-purin-2-yl]-1,3,4-oxadiazol-2(3H)-one]: the concentration for half-maximal inhibition (IC50) came out at 22.8 nM.
Regarding `COc1ncc(Cl)cc1-c1nc(-c2noc(=O)[nH]2)nc2nc(C3(c4ccccc4)CCC3)n(C[C@H]3CC[C@H](C)CC3)c12` [Example 20.14, 3-[6-(5-chloro-2-methoxypyridin-3-yl)-7-[(trans-4-methylcyclohexyl)methyl]-8-(1-phenylcyclobutyl)-7H-purin-2-yl]-1,2,4-oxadiazol-5(4H)-one], the IC50 was determined as 6.11 nM.

Staying with this assay, now noted: Table 21; read-out: FRET IC50.
With `C[C@@H](Nc1nc(C(=O)O)nc2nc(C3=C(c4ccccc4)CCCC3)n(Cc3ccc(C(F)(F)F)cc3)c12)C1CCC1` [Example 21.3, 6-{[(1R)-1-cyclobutylethyl]amino}-8-(2-phenylcyclohex-1-en-1-yl)-7-[4-(trifluoromethyl)benzyl]-7H-purine-2-carboxylic acid], the IC50 was 5.82 nM.
Take `C[C@@H](Nc1nc(C(=O)O)nc2nc(C3=C(c4ccccc4)CCC3)n(Cc3ccc(C(F)(F)F)cc3)c12)C1CCC1` [Example 21.4, 6-{[(1R)-1-cyclobutylethyl]amino}-8-(2-phenylcyclopent-1-en-1-yl)-7-[4-(trifluoromethyl)benzyl]-7H-purine-2-carboxylic acid]: the half-maximal inhibitory concentration (IC50) was 6.99 nM.
The same measure, in the same setting: the result for `Cc1nc2nc(C(=O)O)nc(N[C@H](C)C3CCC3)c2n1C[C@H]1CC[C@H](C)CC1` [Example 21.9, 6-{[(1R)-1-cyclobutylethyl]amino}-8-methyl-7-[(trans-4-methylcyclohexyl)methyl]-7H-purine-2-carboxylic acid] reads 101 nM; that for `C[C@@H](Nc1nc(C(=O)O)nc2nc(C3CCCC(=O)C3c3ccccc3)n(Cc3ccc(C(F)(F)F)cc3)c12)C1CCC1` (stereo partly drawn) [Example 21.11, 6-{[(1R)-1-cyclobutylethyl]amino}-8-(3-oxo-2-phenylcyclohexyl)-7-[4-(trifluoromethyl)benzyl]-7H-purine-2-carboxylic acid], 8.72 nM; that for `C[C@@H](Nc1nc(C(=O)O)nc2nc(C3CCCCC3c3ccccc3)n(Cc3ccc(C(F)(F)F)cc3)c12)C1CCC1` (stereo partly drawn) [Example 21.12, 6-{[(1R)-1-cyclobutylethyl]amino}-8-(2-phenylcyclohexyl)-7-[4-(trifluoromethyl)benzyl]-7H-purine-2-carboxylic acid], 4.57 nM.
`C=C(c1ccccc1)c1nc2nc(-c3noc(=O)[nH]3)nc(N[C@H](C)C3CCC3)c2n1C[C@H]1CC[C@H](C)CC1` [Example 21.13, 3-[6-{[(1R)-1-cyclobutylethyl]amino}-7-[(trans-4-methylcyclohexyl)methyl]-8-(1-phenylethenyl)-7H-purin-2-yl]-1,2,4-oxadiazol-5(4H)-one]: the IC50 was 1.9 nM.
Regarding `C[C@@H](Nc1nc(-c2noc(=O)[nH]2)nc2nc(C3=C(c4ccccc4)CCCC3)n(C[C@H]3CC[C@H](C)CC3)c12)C1CCC1` [Example 21.16, 3-[6-{[(1R)-1-cyclobutylethyl]amino}-7-[(trans-4-methylcyclohexyl)methyl]-8-(2-phenylcyclohex-1-en-1-yl)-7H-purin-2-yl]-1,2,4-oxadiazol-5(4H)-one], the 50% inhibitory concentration (IC50) amounted to 12.2 nM.
The same measure, in the same setting: the result for `C[C@@H](Nc1nc(C(=O)O)nc2nc(C3CCCCC3c3ccccc3)n(C[C@H]3CC[C@H](C)CC3)c12)C1CCC1` (stereo partly drawn) [Example 21.17, 6-{[(1R)-1-cyclobutylethyl]amino}-7-[(trans-4-methylcyclohexyl)methyl]-8-(2-phenylcyclohexyl)-7H-purine-2-carboxylic acid] reads 4.3 nM; that for `C[C@@H](Nc1nc(C(=O)O)nc2nc(C3=C(c4ccccc4)CCCC3)n(C[C@H]3CC[C@H](C)CC3)c12)C1CCC1` [Example 21.18, 6-{[(1R)-1-cyclobutylethyl]amino}-7-[(trans-4-methylcyclohexyl)methyl]-8-(2-phenylcyclohex-1-en-1-yl)-7H-purine-2-carboxylic acid], 6.5 nM.
As to `C=C(c1nc2nc(-c3noc(=O)[nH]3)nc(N[C@H](C)C3CCC3)c2n1C[C@H]1CC[C@H](C)CC1)C1CCCCC1` [Example 21.19, 3-(6-{[(1R)-1-cyclobutylethyl]amino}-8-(1-cyclohexylethenyl)-7-[(trans-4-methylcyclohexyl)methyl]-7H-purin-2-yl)-1,2,4-oxadiazol-5(4H)-one], the IC50 came to 0.931 nM.
On to `C[C@@H](Nc1nc(-c2noc(=O)[nH]2)nc2nc(/C=C/c3ccccc3)n(C[C@H]3CC[C@H](C)CC3)c12)C1CCC1` [Example 21.20, 3-(6-{[(1R)-1-cyclobutylethyl]amino}-7-[(trans-4-methylcyclohexyl)methyl]-8-[(E)-2-phenylethenyl]-7H-purin-2-yl)-1,2,4-oxadiazol-5(4H)-one], for which the half-inhibitory concentration (IC50) came out at 1.89 nM.
With `CC(c1nc2nc(-c3noc(=O)[nH]3)nc(N[C@H](C)C3CCC3)c2n1C[C@H]1CC[C@H](C)CC1)C1CCOCC1` (stereo partly drawn) [Example 21.21, 3-(6-{[(1R)-1-cyclobutylethyl]amino}-7-[(trans-4-methylcyclohexyl)methyl]-8-[1-(tetrahydro-2H-pyran-4-yl)ethyl]-7H-purin-2-yl)-1,2,4-oxadiazol-5(4H)-one], the IC50 was determined as 7.17 nM.
For `C[C@@H](Nc1nc(-c2noc(=O)[nH]2)nc2nc(CCc3ccccc3)n(C[C@H]3CC[C@H](C)CC3)c12)C1CCC1` [Example 21.24, 3-[6-{[(1R)-1-cyclobutylethyl]amino}-7-[(trans-4-methylcyclohexyl)methyl]-8-(2-phenylethyl)-7H-purin-2-yl]-1,2,4-oxadiazol-5(4H)-one], the half-maximal inhibitory concentration (IC50) amounted to 8.02 nM.
Same read-out and setting: under `C[C@@H](Nc1nc(-c2noc(=O)[nH]2)nc2nc(C3CC3)n(C[C@H]3CC[C@H](C)CC3)c12)C1CCC1` [Example 21.27, 3-(6-{[(1R)-1-cyclobutylethyl]amino}-8-cyclopropyl-7-[(trans-4-methylcyclohexyl)methyl]-7H-purin-2-yl)-1,2,4-oxadiazol-5(4H)-one] stands 18 nM; under `C=C(c1ccc(F)cc1)c1nc2nc(-c3noc(=O)[nH]3)nc(N[C@H](C)C3CCC3)c2n1C[C@H]1CC[C@H](C)CC1` [Example 21.30, 3-(6-{[(1R)-1-cyclobutylethyl]amino}-8-[1-(4-fluorophenyl)ethenyl]-7-[(trans-4-methylcyclohexyl)methyl]-7H-purin-2-yl)-1,2,4-oxadiazol-5(4H)-one], 1.84 nM; under `CC(c1ccc(F)cc1)c1nc2nc(-c3noc(=O)[nH]3)nc(N[C@H](C)C3CCC3)c2n1C[C@H]1CC[C@H](C)CC1` (stereo partly drawn) [Example 21.31, 3-(6-{[(1R)-1-cyclobutylethyl]amino}-8-[1-(4-fluorophenyl)ethyl]-7-[(trans-4-methylcyclohexyl)methyl]-7H-purin-2-yl)-1,2,4-oxadiazol-5(4H)-one], 10.5 nM.
As to `C[C@@H](Nc1nc(-c2noc(=O)[nH]2)nc2nc(C3=CCCC3)n(C[C@H]3CC[C@H](C)CC3)c12)C1CCC1` [Example 21.32, 3-(6-{[(1R)-1-cyclobutylethyl]amino}-8-cyclopent-1-en-1-yl-7-[(trans-4-methylcyclohexyl)methyl]-7H-purin-2-yl)-1,2,4-oxadiazol-5(4H)-one], the IC50 amounted to 4.87 nM.
Regarding `C[C@@H](Nc1nc(-c2noc(=O)[nH]2)nc2nc(C3CCCC3)n(C[C@H]3CC[C@H](C)CC3)c12)C1CCC1` [Example 21.34, 3-(6-{[(1R)-1-cyclobutylethyl]amino}-8-cyclopentyl-7-[(trans-4-methylcyclohexyl)methyl]-7H-purin-2-yl)-1,2,4-oxadiazol-5(4H)-one], the half-inhibitory concentration (IC50) was 7.76 nM.
The same measure, in the same setting: under `C[C@@H](Nc1nc(-c2noc(=O)[nH]2)nc2nc(C3=CCCCC3)n(C[C@H]3CC[C@H](C)CC3)c12)C1CCC1` [Example 21.37, 3-(6-{[(1R)-1-cyclobutylethyl]amino}-8-cyclohex-1-en-1-yl-7-[(trans-4-methylcyclohexyl)methyl]-7H-purin-2-yl)-1,2,4-oxadiazol-5(4H)-one] stands 3.79 nM; under `C[C@@H](Nc1nc(C(=O)O)nc2nc(C3CCCCC3)n(C[C@H]3CC[C@H](C)CC3)c12)C1CCC1` [Example 21.38, 6-{[(1R)-1-cyclobutylethyl]amino}-8-cyclohexyl-7-[(trans-4-methylcyclohexyl)methyl]-7H-purine-2-carboxylic acid], 2.68 nM; under `C[C@@H](Nc1nc(-c2noc(=O)[nH]2)nc2nc(C3CCCCC3)n(C[C@H]3CC[C@H](C)CC3)c12)C1CCC1` [Example 21.39, 3-(6-{[(1R)-1-cyclobutylethyl]amino}-8-cyclohexyl-7-[(trans-4-methylcyclohexyl)methyl]-7H-purin-2-yl)-1,2,4-oxadiazol-5(4H)-one], 7.87 nM.
Same read-out and setting: under `C[C@@H](Nc1nc(-c2n[nH]c(=O)o2)nc2nc(C3CCCCC3)n(C[C@H]3CC[C@H](C)CC3)c12)C1CCC1` [Example 21.40, 5-(6-{[(1R)-1-cyclobutylethyl]amino}-8-cyclohexyl-7-[(trans-4-methylcyclohexyl)methyl]-7H-purin-2-yl)-1,3,4-oxadiazol-2(3H)-one] stands 4.29 nM.

Still in this assay, the particulars now being: Table 22; read-out: FRET IC50.
In the case of `C[C@@H](Nc1nc(-c2noc(=O)[nH]2)nc2nc(C(=O)C(C)(C)C)n(C[C@H]3CC[C@H](C)CC3)c12)C1CCC1` [Example 22.1, 3-(6-{[(1R)-1-cyclobutylethyl]amino}-8-(2,2-dimethylpropanoyl)-7-[(trans-4-methylcyclohexyl)methyl]-7H-purin-2-yl)-1,2,4-oxadiazol-5(4H)-one], the concentration for half-maximal inhibition (IC50) came to 4.65 nM.

The IC50 is the point on the concentration scale where inhibition reaches its midpoint.
